Data published in patent publication US9684238B2, “Fluorene-type compound, photopolymerization initiator comprising said fluorene-type compound, and photosensitive composition containing said photopolymerization initiator” (TOKYO OHKA KOGYO CO., LTD., priority 2012, dated 2017).

Tests used:
[1] = Absorption coefficient (absorbance of 0.001% solution in tetrahydrofuran); format: physicochemical; conditions: for Λ max (absorption maximum wavelength): 0.001% (wt/vol) in tetrahydrofuran, from 280 nm to 400 nm; for Absorption coefficient at 365 nm / Absorption coefficient at Λ max: 0.001% (wt/vol) solution in tetrahydrofuran
Method: A 0.001% (wt/vol) solution of each of the compounds 1, 2, 4, 6, 8, 9, 11, 12, 13, 15, 16, D-1, D-3, D-4, D-7, D-8, D-9, D-12, D-14, D-15, D-20, C-1, and C-2 in tetrahydrofuran was prepared, and its absorbance was measured with a spectrophotometer (manufactured by Hitachi High-Technologies Corporation, trade name: “U-3900H”). An absorption maximum wavelength (Amax) at a wavelength of from 280 nm to 400 nm was read from an absorption spectrum obtained with the spectrophotometer.

[2] = Decomposition point by thermal analysis (TG-DTA); format: physicochemical; conditions: 5.0 mg
Method: The compounds 1, 2, 4, 6, 8, 9, 11, 12, 13, 15, 16, D-1, D-3, D-4, D-7, D-8, D-9, D-12, D-14, D-15, D-20, C-1, and C-2 were each subjected to measurement with a thermal analysis apparatus (TG-DTA) (manufactured by Rigaku Corporation, trade name: “Thermo Plus EVO TG 8120”) by using 5.0 mg thereof.

[3] = Average transmittance of composition; format: physicochemical; conditions: photosensitive composition, quartz cell, optical path length 1 cm
Method: The average transmittance (%) of each of the photosensitive resin compositions obtained in Examples 1 to 9, Examples 2-1 to 2-10, and Comparative Examples 1 and 2 in the range of from 400 nm to 700 nm was measured with a spectrophotometer (manufactured by Hitachi High-Technologies Corporation, trade name: “U-3900H”, quartz cell, optical path length; 1 cm).

[4] = Transmittance of transparent cured film; format: physicochemical; conditions: for Average transmittance (700 nm to 400 nm) Transparent cured film / Transmittance (400 nm) Transparent cured film: cured at exposure energy quantity 80 mJ/cm^2; for transparency of photosensitive composition and formed product (in words): photopolymerization initiator containing the compound
Method: Transparent cured films were formed by using the photosensitive compositions obtained in Examples 1 to 9, Examples 2-1 to 2-10, and Comparative Examples 1 and 2 in the same manner as in the evaluation 1 except that the exposure energy quantity was set to 80 mJ/cm^2. The transmittance (%) of each of the resultant transparent cured films at 400 nm and the average transmittance (%) thereof in the range of from 400 to 700 nm were measured with a spectrophotometer (manufactured by Hitachi High-Technologies Corporation, trade name: “U-3900H”, quartz cell, optical path length; 1 cm). A higher transmittance at 400 nm means less coloring with a yellow color. In addition, a higher transmittance of a coating film means a higher transmitting property of a pattern to be formed.

[5] = Evaluation 1: 20-μm pattern line width of transparent photosensitive composition; conditions: for 20-μm pattern line width: transparent composition, initiator 0.4 mmol; for sensitivity to the active energy ray (in words): photopolymerization initiator containing the compound
Method: After that, the mixture was filtered with a membrane filter having an aperture of 5 μm to provide a photosensitive composition.
It should be noted that the fluorene-based compound as a photopolymerization initiator was used in such an amount that its molar quantity was kept constant in the respective examples and comparative examples.
The glass substrate after the application was dried with a fan dryer at 90° C. for 10 minutes. Thus, a coating film (photosensitive layer) was formed. Next, the film was exposed to light having an exposure energy quantity of 5 mJ/cm^2, 10 mJ/cm^2, 20 mJ/cm^2, 40 mJ/cm^2, 60 mJ/cm^2, or 80 mJ/cm^2 by using a high-pressure mercury lamp (manufactured by Karl Suss, trade name: “MASK ALIGNER”) through a negative mask (mask width: 20 μm). Next, the resultant was immersed in a 0.1 wt % aqueous solution of tetramethylammonium hydroxide (TMAH) and then rinsed with pure water. The remaining cured film was subjected to the following evaluation.
(§1) A larger value for the line width means higher sensitivity.

[6] = Evaluation 3: 20-μm pattern line width of black photosensitive composition; conditions: black composition (carbon black, cardo resin), initiator 0.4 mmol
Text: The mixture was filtered with a membrane filter having an aperture of 5 μm to provide a photosensitive composition.
Photosensitive compositions were each obtained in the same manner as in Example 10 except that the used fluorene-based compound and its usage were changed as shown in Table 5.
Each of the photosensitive compositions obtained in Examples 10 to 15, Examples 2-11 to 2-20, and Comparative Example 3 was applied onto a glass substrate with a spin coater (manufactured by Kyowariken Co., Ltd., trade name: “K-359SD1”) so that its thickness after drying became 1.0 μm. The glass substrate after the application was dried with a fan dryer at 90° C. for 10 minutes. Thus, a coating film (photosensitive layer) was formed. Next, the film was exposed to light having an exposure energy quantity of 10 mJ/cm^2, 20 mJ/cm^2, 40 mJ/cm^2, 60 mJ/cm^2, or 80 mJ/cm^2 by using a high-pressure mercury lamp (manufactured by Karl Suss, trade name: “MASK ALIGNER”) through a negative mask (mask width: 20 μm). Next, the resultant was immersed in a 0.1 wt % aqueous solution of tetra methyl ammonium hydroxide (TMAH) and then rinsed with pure water. The remaining cured film was subjected to the following evaluation. In addition, FIGS. 2, 3, and 6 show microscope photographs of black cured films obtained by using the photosensitive compositions of Examples 10 and 11, and Comparative Example 3, and FIGS. 7 to 11 show microscope photographs of black cured films obtained by using the photosensitive compositions of Examples 2-11, 2-13, 2-14, 2-17, and 2-18.
as §1

[7] = Solubility in PGME, PGMEA and ethyl lactate; format: physicochemical; conditions: room temperature
Method: An evaluation for solubility was performed in accordance with the following evaluation criteria based on the dissolution amount.
A: 10 Parts by weight or more of the photopolymerization initiator is dissolved.
B: An amount in the range of from 5 parts by weight or more to less than 10 parts by weight of the photopolymerization initiator is dissolved.
C: An amount in the range of from 2 parts by weight or more to less than 5 parts by weight of the photopolymerization initiator is dissolved.
D: Less than 2 parts by weight of the photopolymerization initiator is dissolved.

[8] = exposure energy quantity 10 mJ/cm^2
[9] = exposure energy quantity 20 mJ/cm^2
[10] = exposure energy quantity 40 mJ/cm^2
[11] = exposure energy quantity 60 mJ/cm^2
[12] = exposure energy quantity 80 mJ/cm^2
[13] = exposure energy quantity 5 mJ/cm^2

Row | SMILES | Λ max (absorption maximum wavelength) [1] [nm] | Absorption coefficient at 365 nm [1] [mL/mg/cm] | Absorption coefficient at Λ max [1] [mL/mg/cm] | Decomposition point [2] [°C] | Average transmittance (700 nm to 400 nm) Solution [3] [%] | Average transmittance (700 nm to 400 nm) Transparent cured film [4] [%] | Transmittance (400 nm) Transparent cured film [4] [%] | 20-μm pattern line width [5, 8] | 20-μm pattern line width [5, 9] | 20-μm pattern line width [5, 10] | 20-μm pattern line width [5, 11] | 20-μm pattern line width [5, 12] | 20-μm pattern line width ([6]; 10 mJ/cm^2) | 20-μm pattern line width ([6]; 20 mJ/cm^2) | 20-μm pattern line width ([6]; 40 mJ/cm^2) | 20-μm pattern line width ([6]; 60 mJ/cm^2) | 20-μm pattern line width ([6]; 80 mJ/cm^2) | 20-μm pattern line width [5, 13] | sensitivity to the active energy ray (in words) [5] | transparency of photosensitive composition and formed product (in words) [4] | other results
1 | CCCCCCC1(CCCCCC)c2cc(C(=O)C(=NOC(C)=O)c3cc(C)ccc3C)ccc2-c2ccc(C(=O)c3ccc([N+](=O)[O-])cc3)cc21 [Compound 13] | 338.5 | 9.2 | 36.3 | 167.1 | 79.2 | 99.4 | 97.0 | 19.4 | 19.6 | 19.8 | 20.6 | 21.0 | – | – | – | – | – | – | – | – | –
2 | CCCC1(CCC)c2cc(C(=O)C(CCSc3ccc(Cl)cc3)=NOC(C)=O)ccc2-c2ccc([N+](=O)[O-])cc21 [Compound D-15] | 346.0 | 36.7 | 52.6 | 202.1 | 86.2 | 99.1 | 91.9 | 19.9 | 20.7 | 21.4 | – | 22.3 | 19.5 | 19.9 | 20.7 | 21.4 | 22.3 | 19.5 | – | – | –
3 | CCCC1(CCC)c2cc(C(CCCSc3ccc(Cl)cc3)=NOC(C)=O)ccc2-c2ccc([N+](=O)[O-])cc21 [Compound D-14] | 345.5 | 36.3 | 53.9 | 186.9 | 65.1 | 99.5 | 92.7 | 20.6 | 21.7 | 22.8 | – | 23.2 | 19.9 | 20.6 | 21.7 | 22.8 | 23.2 | 19.9 | additionally high sensitivity to the active energy ray | – | –
4 | CCCCCCC1(CCCCCC)c2cc(C(=O)c3cccs3)ccc2-c2ccc(C(CC(C)N(OC(C)=O)C(C)=O)=NOC(C)=O)cc21 (racemic) [Compound 11] | 333.5 | 6.6 | 55.0 | 257.3 | 93.0 | 100.0 | 99.1 | 19.9 | 20.5 | 21.9 | 22.5 | 22.8 | – | – | – | – | – | – | additionally high sensitivity to the active energy ray | additionally excellent transparency | –
5 | CCCCCCC1(CCCCCC)c2cc(C(=O)c3ccc(F)cc3)ccc2-c2ccc(/C(CC(C)N(OC(C)=O)C(C)=O)=N\OC(C)=O)cc21 (stereo not shown) [Compound 9] | 330.0 | 3.0 | 54.0 | 192.7 | 94.0 | 100.0 | 99.4 | 19.9 | 20.5 | 21.3 | 22.2 | 22.8 | 19.9 | 20.5 | 21.3 | 22.2 | 22.8 | – | – | additionally excellent transparency | –
6 | CCn1c2ccc(/C(=N\OC(C)=O)c3ccc(OC(C)COC)cc3C)cc2c2cc([N+](=O)[O-])ccc21 (stereo not shown) [Compound C-2, reference compound] | 369.0 | 26.8 | 27.2 | 264.0 | 75.9 | 95.1 | 72.7 | 21.3 | 22.3 | 23.6 | 23.5 | 24.0 | – | – | – | – | – | – | – | – | Solubility Ethyl lactate ([7]; in 100 parts by weight of ethyl lactate): C (An amount in the range of from 2 parts by weight or more to less than 5 parts by weight of the photopolymerization initiator is dissolved.); Solubility PGMEA ([7]; in 100 parts by weight of propylene glycol monomethyl ether acetate): B (An amount in the range of from 5 parts by weight or more to less than 10 parts by weight of the photopolymerization initiator is dissolved.); Solubility PGME ([7]; in 100 parts by weight of propylene glycol monomethyl ether): C (An amount in the range of from 2 parts by weight or more to less than 5 parts by weight of the photopolymerization initiator is dissolved.)
